Reference: ChEMBL document CHEMBL1201862, “PubChem BioAssay data set” (2004)
Calls of active or inactive are those of the source.

How the values were obtained:
[1] = inhibitors of intracellular T. cruzi replication, confirmation, NIH3T3 host cells, beta-gal luminescence (AID 2044); format: functional, cell-based;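 further: intracellular parasites grown in NIH/3T3 mouse fibroblasts as host cells; luminescent beta-galactosidase reporter signal from transgenic T. cruzi replicating inside host cells; inhibitors lower the luminescence signal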
[2] = cytotoxicity toward NIH3T3 fibroblasts, dose response, counter-screen, cell-based, ATP luminescence, mouse fibroblasts (AID 2010); format: functional;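 further: cells exposed to compound for about 90 hours before reading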
cells [3] = assay: cells
[4] = cytotoxicity in KRAS-transformed pancreatic duct cells, primary screen, cell-based, fluorescence, HTS (AID 431); format: functional; conditions: Homo sapiens;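 further: cell line used: HPDE-C7K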
[5] = cytotoxicity in HPDE-C7 cells, cell-based, fluorescence, HTS (AID 430); format: functional; conditions: Homo sapiens
[6] = Jurkat T cell cytotoxicity, dose response, cytotoxicity control for P. falciparum gametocyte viability project, luminescence (AID 1117277); format: functional, cell-based;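 further: potency reflects loss of cellular ATP meaning fewer viable cells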
[7] = P. falciparum late gametocyte killing, dose response, luminescence (AID 1117278); format: functional, cell-based;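 further: gametocytes exposed to compound for 24 hours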
[8] = target: RNA-editing ligase 1, mitochondrial (Trypanosoma brucei brucei, UniProt P86926); assay: TbREL1 ligase inhibitors, dose response, biochemical, fluorescence, Trypanosoma brucei (AID 1117295); format: functional
Sequence of RNA-editing ligase 1, mitochondrial (P86926 whole entry): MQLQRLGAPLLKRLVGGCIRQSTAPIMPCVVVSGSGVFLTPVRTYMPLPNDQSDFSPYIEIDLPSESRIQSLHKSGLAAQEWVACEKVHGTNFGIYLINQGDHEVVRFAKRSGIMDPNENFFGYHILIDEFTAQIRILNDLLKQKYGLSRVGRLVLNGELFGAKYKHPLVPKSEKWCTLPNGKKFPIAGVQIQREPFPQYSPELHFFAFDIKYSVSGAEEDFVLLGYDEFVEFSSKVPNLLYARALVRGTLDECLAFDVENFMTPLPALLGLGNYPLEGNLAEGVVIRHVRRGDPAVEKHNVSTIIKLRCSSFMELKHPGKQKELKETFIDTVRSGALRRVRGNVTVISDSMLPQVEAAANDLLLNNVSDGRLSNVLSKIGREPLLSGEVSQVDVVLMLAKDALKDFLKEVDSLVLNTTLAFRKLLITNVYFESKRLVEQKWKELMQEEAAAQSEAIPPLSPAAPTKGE

[9] = target: Sphingosine 1-phosphate receptor 2 (Homo sapiens, UniProt O95136); assay: Dose Response Cell Based Assay for Agonists of the S1P2 Receptor of Purchased Analogues. [Related pubchem assays: 729, 843, 854, 736 ]; format: functional
Sequence of Sphingosine 1-phosphate receptor 2 (O95136 whole entry): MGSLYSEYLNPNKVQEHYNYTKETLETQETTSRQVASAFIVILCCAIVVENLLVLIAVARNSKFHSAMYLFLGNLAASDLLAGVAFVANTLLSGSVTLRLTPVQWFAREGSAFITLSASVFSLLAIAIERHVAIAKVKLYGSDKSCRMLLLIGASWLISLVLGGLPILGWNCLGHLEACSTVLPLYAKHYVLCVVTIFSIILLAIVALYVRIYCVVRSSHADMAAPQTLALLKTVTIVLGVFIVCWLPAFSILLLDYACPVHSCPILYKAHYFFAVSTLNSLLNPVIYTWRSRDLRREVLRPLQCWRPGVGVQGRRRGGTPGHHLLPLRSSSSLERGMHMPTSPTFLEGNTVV

Nonstructural protein 1 = Nonstructural protein 1 (Influenza A virus, UniProt Q194T2); format: functional, Influenza A virus (A/California/07/2009(H1N1))
Sequence of Nonstructural protein 1 (Q194T2 whole entry): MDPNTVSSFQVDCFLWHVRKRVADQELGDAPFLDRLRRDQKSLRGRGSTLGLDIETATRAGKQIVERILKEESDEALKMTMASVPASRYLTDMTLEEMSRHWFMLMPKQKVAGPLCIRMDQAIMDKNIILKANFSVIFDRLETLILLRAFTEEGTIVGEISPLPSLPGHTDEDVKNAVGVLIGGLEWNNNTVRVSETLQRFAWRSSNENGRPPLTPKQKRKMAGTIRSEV

[10] = target: T1, Rac GTPase-activating protein 1 (Homo sapiens, UniProt Q9H0H5); assay: MgcRacGAP GTPase-activating activity inhibitors, confirmation, biochemical, ADP Hunter fluorescence, primary and confirmatory (AID 624330); format: functional
T1 sequence (Q9H0H5 whole entry): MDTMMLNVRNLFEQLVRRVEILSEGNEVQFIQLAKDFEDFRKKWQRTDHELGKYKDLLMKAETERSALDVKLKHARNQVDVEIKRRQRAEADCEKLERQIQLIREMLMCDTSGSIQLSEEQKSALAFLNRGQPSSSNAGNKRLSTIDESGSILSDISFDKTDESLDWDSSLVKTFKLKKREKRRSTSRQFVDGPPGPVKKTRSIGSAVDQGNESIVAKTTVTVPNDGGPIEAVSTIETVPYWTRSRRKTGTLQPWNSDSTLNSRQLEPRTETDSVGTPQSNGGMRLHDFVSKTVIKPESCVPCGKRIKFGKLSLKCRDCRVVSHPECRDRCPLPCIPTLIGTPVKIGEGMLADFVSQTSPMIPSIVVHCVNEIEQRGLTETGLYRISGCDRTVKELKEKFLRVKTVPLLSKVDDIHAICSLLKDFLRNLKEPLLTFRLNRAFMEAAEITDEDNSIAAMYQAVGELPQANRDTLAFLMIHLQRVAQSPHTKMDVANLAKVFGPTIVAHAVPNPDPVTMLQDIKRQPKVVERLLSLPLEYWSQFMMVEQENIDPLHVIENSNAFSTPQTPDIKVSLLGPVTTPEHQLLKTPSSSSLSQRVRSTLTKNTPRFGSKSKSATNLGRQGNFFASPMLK

[11] = HeLa cell cytotoxicity, dose response, cytotoxicity control for MgcRacGAP inhibitor project (AID 624300); format: functional
[12] = target: T2, DNA repair protein RAD52 homolog (Homo sapiens, UniProt P43351); format: functional, biochemical
T2 sequence (P43351 whole entry): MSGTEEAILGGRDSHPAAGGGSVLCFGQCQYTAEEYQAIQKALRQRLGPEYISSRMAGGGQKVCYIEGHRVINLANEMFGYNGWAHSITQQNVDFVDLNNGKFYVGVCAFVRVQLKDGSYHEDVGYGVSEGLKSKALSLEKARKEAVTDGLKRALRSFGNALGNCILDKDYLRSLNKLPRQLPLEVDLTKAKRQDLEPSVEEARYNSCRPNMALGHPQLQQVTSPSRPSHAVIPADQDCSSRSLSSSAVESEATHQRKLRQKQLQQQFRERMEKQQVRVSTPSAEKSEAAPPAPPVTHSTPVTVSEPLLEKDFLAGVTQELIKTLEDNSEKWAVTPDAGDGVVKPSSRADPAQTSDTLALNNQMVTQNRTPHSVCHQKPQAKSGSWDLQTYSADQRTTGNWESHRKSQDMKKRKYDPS

[13] = target: T3, Zinc finger protein mex-5 (Caenorhabditis elegans, UniProt Q9XUB2); assay: MEX-5/TCR-2 RNA interaction inhibitors, dose response, biochemical, C. elegans, fluorescence polarization (AID 1960)
T3 sequence (Q9XUB2 whole entry): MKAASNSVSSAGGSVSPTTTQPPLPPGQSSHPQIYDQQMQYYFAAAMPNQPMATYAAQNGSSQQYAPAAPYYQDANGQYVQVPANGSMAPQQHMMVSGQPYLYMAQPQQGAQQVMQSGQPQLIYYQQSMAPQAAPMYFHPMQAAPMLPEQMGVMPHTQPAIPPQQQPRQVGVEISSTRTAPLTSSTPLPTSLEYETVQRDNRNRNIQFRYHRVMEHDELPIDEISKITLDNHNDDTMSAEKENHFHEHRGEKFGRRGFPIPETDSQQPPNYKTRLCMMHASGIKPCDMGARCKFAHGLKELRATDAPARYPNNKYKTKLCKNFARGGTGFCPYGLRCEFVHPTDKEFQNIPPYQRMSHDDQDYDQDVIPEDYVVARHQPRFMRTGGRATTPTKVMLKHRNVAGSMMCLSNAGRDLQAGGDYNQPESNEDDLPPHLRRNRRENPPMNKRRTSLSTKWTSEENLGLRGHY

[14] = target: T4, RNA-binding protein pos-1 (Caenorhabditis elegans, UniProt G5EF15); assay: inhibitors of POS-1/mex-3 RNA binding, dose response, biochemical, fluorescence polarization (AID 1964);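 further: purified POS-1 fused to maltose binding protein made in E. coli; potency of compounds blocking POS-1 binding to fluorescent RNA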
T4 sequence (G5EF15 whole entry): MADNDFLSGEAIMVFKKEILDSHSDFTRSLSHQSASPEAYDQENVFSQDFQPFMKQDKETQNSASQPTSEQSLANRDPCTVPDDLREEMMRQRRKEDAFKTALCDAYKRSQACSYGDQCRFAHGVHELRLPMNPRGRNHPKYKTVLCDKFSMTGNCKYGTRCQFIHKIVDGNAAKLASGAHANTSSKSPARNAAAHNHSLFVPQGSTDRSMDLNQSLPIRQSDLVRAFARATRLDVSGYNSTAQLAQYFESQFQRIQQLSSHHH

Bcl-2-related protein A1 [15] = target: T5, Bcl-2-related protein A1 (Mus musculus, UniProt Q07440); assay: Bfl-1 binding inhibitors, SAR follow-up, biochemical, fluorescence polarization (AID 1070)
T5 sequence (Q07440 whole entry): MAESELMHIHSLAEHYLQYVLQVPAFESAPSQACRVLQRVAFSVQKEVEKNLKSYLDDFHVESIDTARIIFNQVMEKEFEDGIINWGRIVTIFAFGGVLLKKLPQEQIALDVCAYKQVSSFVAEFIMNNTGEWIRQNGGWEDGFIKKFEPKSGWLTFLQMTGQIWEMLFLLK

Bcl-2-related protein A1 [16] = target: T5, Bcl-2-related protein A1; assay: Bfl-1 inhibitors blocking BH3 peptide binding, confirmation, biochemical, TR-FRET, mouse Bfl-1 (AID 621);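 further: TR-FRET binding of GST-Bfl-1 to FITC-labelled Bid peptide via terbium antibody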
[17] = target: Glyceraldehyde-3-phosphate dehydrogenase (Homo sapiens, UniProt P04406)
Sequence of Glyceraldehyde-3-phosphate dehydrogenase (P04406 whole entry): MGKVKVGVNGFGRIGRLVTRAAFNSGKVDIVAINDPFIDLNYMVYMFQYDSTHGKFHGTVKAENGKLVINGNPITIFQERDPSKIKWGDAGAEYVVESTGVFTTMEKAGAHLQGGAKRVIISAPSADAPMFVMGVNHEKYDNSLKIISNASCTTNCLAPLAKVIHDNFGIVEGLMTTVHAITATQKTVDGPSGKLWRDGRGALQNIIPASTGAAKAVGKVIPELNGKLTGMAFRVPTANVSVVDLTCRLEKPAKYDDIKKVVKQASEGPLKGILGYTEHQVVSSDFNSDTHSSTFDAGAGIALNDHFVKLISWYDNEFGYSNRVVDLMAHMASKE

Protein Tat = Protein Tat (Human immunodeficiency virus type 1 group M subtype B (isolate HXB2)(HIV-1), UniProt P04608); format: functional;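 further: tat binding to TAR RNA read out by fluorescence polarization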
Sequence of Protein Tat (P04608 whole entry): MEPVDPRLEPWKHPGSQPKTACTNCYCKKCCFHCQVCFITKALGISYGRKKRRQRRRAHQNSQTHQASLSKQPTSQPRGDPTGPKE

Kallikrein-7 = Kallikrein-7 (Homo sapiens, UniProt P49862); assay: Fluorescence Intensity-based biochemical primary high throughput dose response assay to identify activators of kallikrein-7 (K7) zymogen.
Sequence of Kallikrein-7 (P49862 whole entry): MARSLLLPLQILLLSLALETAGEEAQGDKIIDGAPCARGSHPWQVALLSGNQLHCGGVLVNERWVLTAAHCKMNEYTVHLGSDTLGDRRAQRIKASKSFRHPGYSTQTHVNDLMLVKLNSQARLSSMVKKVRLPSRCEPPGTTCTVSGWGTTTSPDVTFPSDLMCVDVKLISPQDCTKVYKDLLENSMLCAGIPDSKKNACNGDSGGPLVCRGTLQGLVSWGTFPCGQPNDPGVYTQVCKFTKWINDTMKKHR

cells [18] = assay: cells; remark: listed apart in the source
[19] = target: Oxysterols receptor LXR-beta (Homo sapiens, UniProt P55055); format: functional, cell-based;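 further: Cell-based luminescence dose-response assay of agonist activity at LXR, run as a confirmatory counterscreen to a daf-12 agonist screen; HEK293 cells with Gal4-LXR fusion and GAL4-driven luciferase reporter; agonist potency from rising luciferase signal of a Gal4-LXR reporter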
Sequence of Oxysterols receptor LXR-beta (P55055 whole entry, the tested form may be a part): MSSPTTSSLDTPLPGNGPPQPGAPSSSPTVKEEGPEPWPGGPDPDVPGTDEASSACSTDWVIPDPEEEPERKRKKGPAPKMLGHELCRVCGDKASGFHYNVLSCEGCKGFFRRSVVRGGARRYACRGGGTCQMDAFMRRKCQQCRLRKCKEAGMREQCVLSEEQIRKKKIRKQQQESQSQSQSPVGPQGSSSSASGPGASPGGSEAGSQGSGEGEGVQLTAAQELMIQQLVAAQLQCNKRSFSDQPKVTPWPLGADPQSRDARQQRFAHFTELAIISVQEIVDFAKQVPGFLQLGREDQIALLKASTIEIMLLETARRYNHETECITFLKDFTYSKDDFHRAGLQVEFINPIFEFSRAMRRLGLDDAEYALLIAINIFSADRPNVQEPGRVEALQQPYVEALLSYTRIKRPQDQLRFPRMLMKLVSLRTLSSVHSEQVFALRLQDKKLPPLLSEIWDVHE

HEK293 = assay: cells; format: functional, cell-based; conditions: Homo sapiens
[20] = target: FAD-linked sulfhydryl oxidase ALR (Homo sapiens, UniProt P55789); assay: inhibitors of human ALR sulfhydryl oxidase, dose response, biochemical, H2O2 detection, luminescence, cherry-pick (AID 493248)
Sequence of FAD-linked sulfhydryl oxidase ALR (P55789 whole entry): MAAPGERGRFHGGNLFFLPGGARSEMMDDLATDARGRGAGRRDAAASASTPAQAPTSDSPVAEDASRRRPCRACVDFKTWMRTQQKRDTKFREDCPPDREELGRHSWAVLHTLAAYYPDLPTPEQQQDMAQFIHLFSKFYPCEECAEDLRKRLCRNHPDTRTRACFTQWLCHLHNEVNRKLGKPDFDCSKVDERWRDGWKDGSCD

[21] = target: T6, Nuclear receptor subfamily 0 group B member 1 (Homo sapiens, UniProt P51843); assay: Luminescence-based cell-based high throughput dose response assay for inhibitors of the orphan nuclear receptor subfamily 0, group B, member 1 (DAX1; NR0B1). [Related pubchem assays (depositor defined):AID504766, AID504790]; format: functional
T6 sequence (P51843 whole entry): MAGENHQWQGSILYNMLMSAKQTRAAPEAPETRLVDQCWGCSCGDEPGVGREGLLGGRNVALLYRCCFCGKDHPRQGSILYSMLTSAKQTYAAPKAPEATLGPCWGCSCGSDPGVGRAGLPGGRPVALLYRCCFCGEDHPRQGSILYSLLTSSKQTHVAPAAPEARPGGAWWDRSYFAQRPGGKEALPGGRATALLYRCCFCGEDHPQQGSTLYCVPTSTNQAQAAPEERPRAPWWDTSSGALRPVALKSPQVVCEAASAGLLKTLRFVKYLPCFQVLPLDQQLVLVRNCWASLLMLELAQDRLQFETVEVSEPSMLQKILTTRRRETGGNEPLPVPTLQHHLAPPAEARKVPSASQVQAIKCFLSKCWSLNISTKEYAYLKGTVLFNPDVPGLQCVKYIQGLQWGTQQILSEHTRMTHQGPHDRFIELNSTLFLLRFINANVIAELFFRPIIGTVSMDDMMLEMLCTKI

[22] = A375 melanoma cell viability loss, dose response, counter-screen for MITF inhibitor project, CellTiter-Glo luminescence, dry powder, set 4 (AID 624364); format: functional, cell-based; conditions: A-375;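 further: A375 melanoma cells are MITF independent so this is a counter screen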
[23] = A375 melanoma cell cytotoxicity, dose response, counter-screen for MITF inhibitor project, CellTiter-Glo luminescence, dry powder, set 2 (AID 624489); format: functional, cell-based; conditions: A-375;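 further: actives are compounds lowering A375 viability meaning general cytotoxicity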
[24] = P. falciparum 3D7-ScDHODH growth inhibitors, dose response, SYBR Green, dry powder samples (AID 1159570); format: functional, cell-based;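 further: parasite growth measured after 72 hours of compound exposure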
[25] = P. falciparum Dd2 growth inhibitors, dose response, SYBR Green, cherry-picked samples (AID 1159567); format: functional, cell-based
[26] = P. falciparum Dd2 growth inhibitors, dose response, SYBR Green, dry powder samples (AID 1159566); format: functional, cell-based;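 further: potency for growth inhibition with lower SYBR green DNA signal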
[27] = P. falciparum ATP4 D1247Y mutant growth inhibitors, dose response, NITD609-resistant line, SYBR Green, dry powder (AID 1159571); format: functional, cell-based;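 further: parasites synchronized at ring stage by sorbitol before testing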
[28] = HeLa 4N DNA content increase, dose response, cell-based, IC50 (AID 1117351); format: functional
[29] = HeLa 2N DNA content increase, dose response, cell-based, IC50 (AID 1117349); format: functional

Compound: CCCCN(CC)CCNC(=O)c1nn(-c2ccc(OC)cc2)c(=O)c2c1c1ccccc1n2C
- EC50 [1]: < 0.1 µM (active)
- EC50 [2]: > 60 µM (not active)
- EC50 (cells [3]): 0.207 µM (active)

Compound: Cc1ccc(C(=O)OCC(=O)Nc2sc3c(c2C#N)CCCCC3)cc1NC(=O)c1ccco1
- EC50 [4]: > 20 µM (not active)
- EC50 [5]: > 20 µM (not active)

Compound: CCN1CCN(C(=O)c2ccc3c(=O)n(C4CCCC4)c(=S)[nH]c3c2)CC1
- IC50 [6]: > 83.3 µM (inactive)
- IC50 [7]: > 109 µM (inactive)

Compound: Cc1cc(C)c(OCCCNCc2ccccc2)c(Br)c1
- IC50 [8]: > 96.6 µM (inactive)

Compound: Cc1cc(C(=O)CSc2nnc(C3CC3)n2C)c(C)n1Cc1ccccc1
- EC50 [9]: > 30 µM (not active)

Compound: Cn1c(N=Nc2ccc(N3CCOCC3)cc2)[n+](C)c2ccccc21
- IC50 (Nonstructural protein 1): 8.01 µM (active)
- IC50 [10]: 26 µM (active)
- CC50 [11]: 100 µM (active)
- IC50 [8]: 34 µM (inactive)
- AC50 [12]: 2.36 µM (active)
- EC50 [13]: 219 µM (active)
- EC50 [14]: > 300 µM (not active)

Compound: O=C1C(Cl)=C(Cl)C(=O)N1c1ccc(Cl)cc1Cl
- IC50 (Bcl-2-related protein A1 [15]): 1.64 µM (active)
- IC50 (Bcl-2-related protein A1 [16]): 0.74 µM (active)
- IC50 [17]: > 100 µM (not active)

Compound: CC(C)(Oc1ccc(Cl)cc1)C(=O)NCc1ccco1
- IC50 (Protein Tat): > 100 µM (active)

Compound: CN1C(=O)c2ccccc2N(C)C1c1ccc2c(c1)OCO2 (stereo not given)
- EC50 (Kallikrein-7): > 69.5 µM (inactive)

Compound: O=[N+]([O-])c1cccc(S(=O)(=O)c2ccc(N3CCCCC3)c([N+](=O)[O-])c2)c1
- IC50 [6]: > 83.3 µM (inactive)
- IC50 [7]: > 109 µM (inactive)

Compound: COC(=O)c1c(NC(=O)Cn2cnc([N+](=O)[O-])n2)sc2c1CCC(C)C2 (stereo not given)
- EC50 [1]: < 0.1 µM (active)
- EC50 [2]: > 60 µM (inconclusive)
- EC50 (cells [3]): 0.112 µM (active)

Compound: Cc1cc(C(=O)CN2C(=O)NC3(CCOc4ccccc43)C2=O)c(C)n1Cc1ccccc1 (stereo not given)
- EC50 [9]: > 30 µM (not active)

Compound: Clc1ccccc1NN=Cc1ccccn1
- EC50 (cells [18]): > 67.6 µM (inactive)
- EC50 [19]: > 67.6 µM (inactive)

Compound: Cc1ccc(N/N=C(\C#N)C(=N)N2CCCCC2)cc1
- EC50 (cells [18]): > 67.6 µM (inactive)
- IC50 (HEK293): > 0.278 µM (active)
- AC50 [20]: 0.228 µM (active)
- EC50 [19]: > 67.6 µM (inactive)
- IC50 [21]: > 67.5 µM (inactive)

Compound: C=CCNC1=C(N2CCCCC2)C(=O)c2ccccc2C1=O
- AC50 [22]: 29.1 µM (active)
- AC50 [23]: 5.82 µM (active)

Compound: COc1cccc2cccc(/C=N/n3cnnc3)c12
- EC50 (Kallikrein-7): > 69.5 µM (inactive)

Compound: CCS(=O)(=O)N1CCC2(CC1)CN(S(=O)(=O)c1ccc(C)cc1)[C@@H](CO)c1[nH]c3cc(OC)ccc3c12
- AC50 [24]: 1.04 µM (active)
- AC50 [25]: 1.3 µM (active)
- AC50 [26]: 0.88 µM (active)
- AC50 [27]: 0.738 µM (active)

Compound: COc1cccc(-c2cc(C(=O)NC3=C(Cl)C(=O)c4ccccc4C3=O)ccc2OC)c1
- AC50 [22]: > 70 µM (inactive)
- AC50 [23]: > 70 µM (inactive)

Compound: Nc1nc(=O)n([C@@H]2O[C@H](CO)[C@@H](O)[C@@H]2F)cc1I [FIACITABINE]
- IC50 [28]: > 10 µM (inactive)
- IC50 [29]: > 10 µM (inactive)
